From ChEMBL document CHEMBL2163268, “Structure-based design of a novel series of potent, selective inhibitors of the class I phosphatidylinositol 3-kinases” (J Med Chem, 2012)

What was measured:
[1] = target: Serine/threonine-protein kinase B-raf (Homo sapiens, UniProt P15056, V600E)
[2] = target: Serine/threonine-protein kinase mTOR (Homo sapiens, UniProt P42345)
Description: Inhibition of recombinant GST-tagged mTOR-mediated 4EBP1 phosphorylation after 90 mins by FRET assay

in vitro = conditions: rat, liver microsomes
Description: Intrinsic clearance in rat liver microsomes

[3] = target: T1, Phosphatidylinositol 4,5-bisphosphate 3-kinase catalytic subunit delta isoform (Homo sapiens, UniProt O00329); assay: biochemical
T1 sequence (O00329 whole entry): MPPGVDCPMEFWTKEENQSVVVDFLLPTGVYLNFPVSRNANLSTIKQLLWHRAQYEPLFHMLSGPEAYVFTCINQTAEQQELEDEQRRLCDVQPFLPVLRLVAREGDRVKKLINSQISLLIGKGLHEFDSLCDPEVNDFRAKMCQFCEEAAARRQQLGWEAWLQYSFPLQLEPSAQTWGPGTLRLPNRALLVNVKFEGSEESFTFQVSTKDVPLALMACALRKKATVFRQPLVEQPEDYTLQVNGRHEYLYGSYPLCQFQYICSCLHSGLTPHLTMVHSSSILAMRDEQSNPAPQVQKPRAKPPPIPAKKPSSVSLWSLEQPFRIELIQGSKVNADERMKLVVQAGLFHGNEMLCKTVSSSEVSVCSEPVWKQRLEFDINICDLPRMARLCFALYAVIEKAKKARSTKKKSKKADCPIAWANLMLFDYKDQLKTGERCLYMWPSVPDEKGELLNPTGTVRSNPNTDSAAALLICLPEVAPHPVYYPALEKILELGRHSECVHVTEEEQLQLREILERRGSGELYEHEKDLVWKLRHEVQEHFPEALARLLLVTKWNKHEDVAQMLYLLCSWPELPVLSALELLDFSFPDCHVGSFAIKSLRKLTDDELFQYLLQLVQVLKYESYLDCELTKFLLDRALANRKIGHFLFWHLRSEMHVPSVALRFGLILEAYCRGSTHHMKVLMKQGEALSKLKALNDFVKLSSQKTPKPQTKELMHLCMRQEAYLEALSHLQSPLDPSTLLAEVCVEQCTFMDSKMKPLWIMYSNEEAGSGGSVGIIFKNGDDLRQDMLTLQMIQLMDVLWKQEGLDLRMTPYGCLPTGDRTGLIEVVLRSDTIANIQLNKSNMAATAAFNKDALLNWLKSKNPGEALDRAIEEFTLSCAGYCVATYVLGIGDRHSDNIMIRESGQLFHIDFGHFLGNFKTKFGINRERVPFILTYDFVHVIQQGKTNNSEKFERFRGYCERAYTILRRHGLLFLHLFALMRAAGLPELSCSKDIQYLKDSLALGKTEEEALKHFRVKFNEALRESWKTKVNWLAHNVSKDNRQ
Description: Inhibition of human N-terminal poly-His tagged-PI3Kdelta expressed in Sf9 baculovirus system co-expressing p85alpha after 20 mins by AlphaScreen assay

[4] = target: Phosphatidylinositol 4,5-bisphosphate 3-kinase catalytic subunit gamma isoform (Homo sapiens, UniProt P48736); assay: biochemical
Description: Inhibition of human N-terminal poly-His tagged-PI3Kgamma expressed in Sf9 baculovirus system co-expressing p85alpha after 20 mins by AlphaScreen assay

[5] = target: Phosphatidylinositol 4,5-bisphosphate 3-kinase catalytic subunit beta isoform (Homo sapiens, UniProt P42338); assay: biochemical
Description: Inhibition of human N-terminal poly-His tagged-PI3Kbeta expressed in Sf9 baculovirus system co-expressing p85alpha after 20 mins by AlphaScreen assay

[6] = target: Phosphatidylinositol 4,5-bisphosphate 3-kinase catalytic subunit alpha isoform (Homo sapiens, UniProt P42336); assay: biochemical
Description: Inhibition of human N-terminal poly-His tagged-PI3Kalpha expressed in Sf9 baculovirus system co-expressing p85alpha after 20 mins by AlphaScreen assay

[7] = target: Phosphatidylinositol 3-kinase catalytic subunit type 3 (Homo sapiens, UniProt Q8NEB9)
Description: Inhibition of human VPS34 after 30 mins by fluorescence-based immunoassay

[8] = Oral bioavailability in rat at 2 mg/kg; format: ADME, organism-based; conditions: in vivo
in vivo [9] = conditions: rat, iv, 1 mg/kg
Description: Mean residence time in rat at 1 mg/kg, iv

in vivo [10] = conditions: rat, iv, 1 mg/kg; remark: listed apart in the source
Description: Clearance in rat at 1 mg/kg, iv

in vivo [11] = conditions: rat, plasma, po, 2 mg/kg
in vivo [12] = conditions: rat, iv, 1 mg/kg; remark: listed apart in the source
Description: Volume of distribution at steady state in rat at 1 mg/kg, iv

Sequence of Phosphatidylinositol 4,5-bisphosphate 3-kinase catalytic subunit beta isoform (P42338 whole entry, canonical isoform): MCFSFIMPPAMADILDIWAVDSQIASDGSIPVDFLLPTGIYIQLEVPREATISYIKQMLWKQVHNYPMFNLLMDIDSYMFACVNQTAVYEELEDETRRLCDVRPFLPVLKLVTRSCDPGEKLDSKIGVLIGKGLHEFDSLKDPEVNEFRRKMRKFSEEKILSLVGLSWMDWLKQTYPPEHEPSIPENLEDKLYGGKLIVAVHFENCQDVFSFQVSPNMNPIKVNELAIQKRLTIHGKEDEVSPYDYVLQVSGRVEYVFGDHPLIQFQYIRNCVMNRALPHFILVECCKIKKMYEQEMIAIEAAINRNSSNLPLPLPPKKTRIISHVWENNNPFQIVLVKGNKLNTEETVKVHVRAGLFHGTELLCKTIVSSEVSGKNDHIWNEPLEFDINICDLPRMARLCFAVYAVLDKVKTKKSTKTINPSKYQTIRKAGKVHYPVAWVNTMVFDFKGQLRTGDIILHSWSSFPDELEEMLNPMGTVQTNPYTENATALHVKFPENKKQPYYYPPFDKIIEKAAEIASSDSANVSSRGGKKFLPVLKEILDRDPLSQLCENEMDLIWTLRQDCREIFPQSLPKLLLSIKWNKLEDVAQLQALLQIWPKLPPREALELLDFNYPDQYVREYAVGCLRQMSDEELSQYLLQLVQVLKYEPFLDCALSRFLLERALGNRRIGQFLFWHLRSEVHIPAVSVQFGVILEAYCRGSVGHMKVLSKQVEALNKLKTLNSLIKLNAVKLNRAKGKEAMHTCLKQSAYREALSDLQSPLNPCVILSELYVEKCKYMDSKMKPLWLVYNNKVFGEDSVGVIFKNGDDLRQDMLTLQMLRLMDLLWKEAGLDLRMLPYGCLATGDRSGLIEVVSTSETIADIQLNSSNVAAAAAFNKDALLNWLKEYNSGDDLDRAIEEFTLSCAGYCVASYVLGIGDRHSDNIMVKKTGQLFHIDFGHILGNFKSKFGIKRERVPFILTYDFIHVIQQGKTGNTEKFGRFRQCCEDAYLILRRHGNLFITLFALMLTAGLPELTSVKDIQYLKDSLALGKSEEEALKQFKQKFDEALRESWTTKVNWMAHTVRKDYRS
Sequence of Serine/threonine-protein kinase B-raf (P15056 2-766 V600E limits assumed): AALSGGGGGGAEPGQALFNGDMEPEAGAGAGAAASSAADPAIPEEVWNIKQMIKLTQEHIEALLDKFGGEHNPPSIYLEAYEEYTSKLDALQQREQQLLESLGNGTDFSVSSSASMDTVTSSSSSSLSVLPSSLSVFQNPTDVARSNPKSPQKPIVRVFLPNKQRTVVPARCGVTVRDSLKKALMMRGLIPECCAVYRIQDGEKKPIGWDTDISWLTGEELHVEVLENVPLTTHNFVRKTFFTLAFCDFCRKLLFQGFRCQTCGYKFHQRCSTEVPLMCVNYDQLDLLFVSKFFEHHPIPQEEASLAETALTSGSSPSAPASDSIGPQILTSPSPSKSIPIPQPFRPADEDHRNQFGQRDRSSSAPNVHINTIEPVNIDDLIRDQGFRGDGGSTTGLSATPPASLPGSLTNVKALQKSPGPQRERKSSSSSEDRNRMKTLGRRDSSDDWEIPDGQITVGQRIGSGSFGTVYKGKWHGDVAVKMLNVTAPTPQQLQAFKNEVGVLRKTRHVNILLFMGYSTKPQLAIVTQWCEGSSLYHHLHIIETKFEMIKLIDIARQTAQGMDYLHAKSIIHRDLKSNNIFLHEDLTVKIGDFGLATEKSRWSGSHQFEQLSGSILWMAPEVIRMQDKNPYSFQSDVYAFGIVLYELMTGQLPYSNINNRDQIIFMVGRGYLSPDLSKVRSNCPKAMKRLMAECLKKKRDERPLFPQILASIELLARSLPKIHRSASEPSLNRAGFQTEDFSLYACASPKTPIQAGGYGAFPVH
Sequence of Phosphatidylinositol 4,5-bisphosphate 3-kinase catalytic subunit alpha isoform (P42336 whole entry, canonical isoform): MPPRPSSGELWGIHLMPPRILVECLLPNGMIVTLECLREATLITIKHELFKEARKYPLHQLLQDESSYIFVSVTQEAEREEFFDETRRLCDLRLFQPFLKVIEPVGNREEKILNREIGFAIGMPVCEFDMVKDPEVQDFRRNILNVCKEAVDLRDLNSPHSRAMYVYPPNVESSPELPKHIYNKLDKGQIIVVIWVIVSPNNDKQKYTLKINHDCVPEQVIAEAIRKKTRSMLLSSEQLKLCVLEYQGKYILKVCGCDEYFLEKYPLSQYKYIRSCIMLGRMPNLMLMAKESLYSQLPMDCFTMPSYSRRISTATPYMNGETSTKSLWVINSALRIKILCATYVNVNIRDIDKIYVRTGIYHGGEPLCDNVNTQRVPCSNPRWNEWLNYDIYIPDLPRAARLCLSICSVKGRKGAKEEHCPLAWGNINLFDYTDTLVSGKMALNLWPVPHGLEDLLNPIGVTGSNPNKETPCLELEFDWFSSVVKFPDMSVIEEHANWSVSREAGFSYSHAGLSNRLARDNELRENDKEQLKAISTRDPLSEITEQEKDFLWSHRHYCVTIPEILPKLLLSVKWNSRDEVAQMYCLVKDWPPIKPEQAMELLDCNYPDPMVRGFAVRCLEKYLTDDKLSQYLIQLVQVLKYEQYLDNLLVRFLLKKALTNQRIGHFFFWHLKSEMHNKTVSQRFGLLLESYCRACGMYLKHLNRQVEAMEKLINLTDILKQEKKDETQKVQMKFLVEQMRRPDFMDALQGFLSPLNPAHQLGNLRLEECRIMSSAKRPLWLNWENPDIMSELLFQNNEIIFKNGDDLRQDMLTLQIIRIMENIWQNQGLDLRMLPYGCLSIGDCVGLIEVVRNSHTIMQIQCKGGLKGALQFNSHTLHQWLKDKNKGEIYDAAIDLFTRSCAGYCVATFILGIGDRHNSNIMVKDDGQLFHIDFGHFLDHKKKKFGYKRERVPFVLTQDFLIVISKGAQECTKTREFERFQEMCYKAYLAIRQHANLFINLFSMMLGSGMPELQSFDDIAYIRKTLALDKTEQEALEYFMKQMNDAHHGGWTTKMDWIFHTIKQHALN
Sequence of Phosphatidylinositol 4,5-bisphosphate 3-kinase catalytic subunit gamma isoform (P48736 whole entry, canonical isoform): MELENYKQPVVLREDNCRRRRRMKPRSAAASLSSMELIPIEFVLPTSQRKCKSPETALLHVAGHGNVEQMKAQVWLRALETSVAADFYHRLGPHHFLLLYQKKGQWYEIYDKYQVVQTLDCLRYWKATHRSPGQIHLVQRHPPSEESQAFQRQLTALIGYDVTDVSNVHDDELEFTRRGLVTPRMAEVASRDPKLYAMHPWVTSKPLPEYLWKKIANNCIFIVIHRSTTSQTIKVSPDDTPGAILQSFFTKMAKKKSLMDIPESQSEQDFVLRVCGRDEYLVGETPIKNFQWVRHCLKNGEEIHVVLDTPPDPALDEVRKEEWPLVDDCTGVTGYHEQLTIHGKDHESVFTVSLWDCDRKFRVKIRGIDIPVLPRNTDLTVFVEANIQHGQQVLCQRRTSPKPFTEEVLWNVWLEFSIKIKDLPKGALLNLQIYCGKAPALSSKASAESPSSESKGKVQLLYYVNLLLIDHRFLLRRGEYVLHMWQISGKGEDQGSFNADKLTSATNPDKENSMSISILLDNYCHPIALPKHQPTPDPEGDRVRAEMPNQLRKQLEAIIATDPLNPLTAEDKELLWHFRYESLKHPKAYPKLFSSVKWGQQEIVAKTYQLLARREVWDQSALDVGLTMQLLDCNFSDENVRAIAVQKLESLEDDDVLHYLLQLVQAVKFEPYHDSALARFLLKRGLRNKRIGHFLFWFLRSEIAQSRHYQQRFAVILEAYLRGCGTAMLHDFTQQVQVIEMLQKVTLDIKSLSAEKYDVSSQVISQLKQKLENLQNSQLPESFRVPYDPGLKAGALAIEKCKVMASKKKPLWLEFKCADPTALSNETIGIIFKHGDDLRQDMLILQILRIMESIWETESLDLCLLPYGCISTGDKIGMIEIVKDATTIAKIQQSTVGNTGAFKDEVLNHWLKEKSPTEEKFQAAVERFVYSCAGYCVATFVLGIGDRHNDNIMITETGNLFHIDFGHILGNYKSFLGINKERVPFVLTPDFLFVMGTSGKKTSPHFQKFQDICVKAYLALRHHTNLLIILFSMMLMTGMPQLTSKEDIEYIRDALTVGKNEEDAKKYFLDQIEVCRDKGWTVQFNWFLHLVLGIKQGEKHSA
Sequence of Phosphatidylinositol 3-kinase catalytic subunit type 3 (Q8NEB9 whole entry): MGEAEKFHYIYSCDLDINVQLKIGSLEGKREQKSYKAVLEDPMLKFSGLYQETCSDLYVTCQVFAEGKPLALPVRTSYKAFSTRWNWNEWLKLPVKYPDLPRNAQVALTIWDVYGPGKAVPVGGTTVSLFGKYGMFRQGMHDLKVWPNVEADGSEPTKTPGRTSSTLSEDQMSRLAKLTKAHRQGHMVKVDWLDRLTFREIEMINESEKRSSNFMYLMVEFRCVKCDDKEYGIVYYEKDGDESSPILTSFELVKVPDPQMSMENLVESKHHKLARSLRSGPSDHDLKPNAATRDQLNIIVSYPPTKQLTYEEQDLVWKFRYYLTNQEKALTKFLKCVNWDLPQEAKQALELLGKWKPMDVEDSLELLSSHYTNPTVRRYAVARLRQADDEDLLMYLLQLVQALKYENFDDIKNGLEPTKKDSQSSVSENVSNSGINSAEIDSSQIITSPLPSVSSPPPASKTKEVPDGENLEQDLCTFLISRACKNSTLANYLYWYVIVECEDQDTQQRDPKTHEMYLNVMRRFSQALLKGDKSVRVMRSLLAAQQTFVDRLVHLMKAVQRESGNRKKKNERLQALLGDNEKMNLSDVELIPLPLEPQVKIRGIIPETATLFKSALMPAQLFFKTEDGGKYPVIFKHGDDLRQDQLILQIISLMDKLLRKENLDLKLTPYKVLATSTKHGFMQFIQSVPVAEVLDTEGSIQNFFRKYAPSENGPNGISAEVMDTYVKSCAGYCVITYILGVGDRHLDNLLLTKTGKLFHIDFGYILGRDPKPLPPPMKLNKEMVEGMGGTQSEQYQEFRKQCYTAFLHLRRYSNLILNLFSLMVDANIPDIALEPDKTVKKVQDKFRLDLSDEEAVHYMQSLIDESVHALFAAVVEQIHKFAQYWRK

Row | SMILES | IC50 [1] | IC50 [2] | microsomal CLint (in vitro) | Ki [3] | Ki [4] | Ki [5] | Ki [6] | IC50 [7] | bioavailability [8] | MRT (in vivo [9]) | clearance (in vivo [10]) | AUC (in vivo [11]) | Vd (in vivo [12])
1 | Cc1nc(N)c(F)c(-c2cccnc2Nc2cccc3[nH]ncc23)n1 | > 1000 nM | > 10000 nM | 71 µL/min/mg | 810 nM | 330 nM | 990 nM | 930 nM | – | – | – | – | – | –
2 | COc1ccc(Nc2ncc(N3CCOCC3)cc2-c2nc(C)nc(N)n2)cn1 | – | > 10000 nM | 67 µL/min/mg | 4 nM | 4 nM | 9 nM | 22 nM | – | – | – | – | – | –
3 | COc1ccc(Nc2ncccc2-c2nc(C)nc(N)n2)cn1 | > 1000 nM | – | 51 µL/min/mg | 37 nM | 29 nM | 23 nM | – | – | – | – | – | – | –
4 | COCc1cnc(Nc2ccc(OC)nc2)c(-c2nc(C)nc(N)n2)c1 | – | > 10000 nM | 58 µL/min/mg | 10 nM | 9 nM | 20 nM | 49 nM | – | – | – | – | – | –
5 | Cc1nc(N)nc(-c2cccnc2Nc2cccc3[nH]ccc23)n1 | > 1000 nM | – | 110 µL/min/mg | 25 nM | 45 nM | 9 nM | – | > 9000 nM | – | – | – | – | –
6 | Cc1cc(-c2cccnc2Oc2cccc3[nH]ccc23)nc(N)n1 | > 1000 nM | > 10000 nM | 218 µL/min/mg | > 10000 nM | > 10000 nM | > 10000 nM | > 10000 nM | – | – | – | – | – | –
7 | Cc1nc(NCC#N)nc(-n2c(Nc3cccc(O)c3)nc3ccccc32)n1 | 1200 nM | – | 394 µL/min/mg | 11 nM | 69 nM | 43 nM | 16 nM | – | – | – | – | – | –
8 | COc1ccc(Nc2ncccc2-c2nc(C)nc3nc[nH]c23)cn1 | > 1000 nM | – | 68 µL/min/mg | – | 12 nM | 45 nM | – | – | – | – | – | – | –
9 | COC(=O)N1CCN(Cc2cnc(Nc3ccc(OC)nc3)c(-c3nc(C)nc(N)n3)c2)CC1 | – | 3700 nM | 20 µL/min/mg | 6 nM | 18 nM | 18 nM | 94 nM | – | – | – | – | – | –
10 | Cc1nc(N)nc(-c2cccnc2Nc2cccc(O)c2)n1 | > 1000 nM | – | 80 µL/min/mg | 9 nM | – | 3 nM | – | – | – | – | – | – | –
11 | c1cnc(Nc2cccc3n[nH]cc23)c(-c2ncnc3nc[nH]c23)c1 | – | > 10000 nM | 115 µL/min/mg | > 10000 nM | – | 9700 nM | > 10000 nM | – | – | – | – | – | –
12 | Cc1nc(N)nc(-c2cccnc2Nc2cccc3[nH]ncc23)n1 | > 1000 nM | > 10000 nM | 65 µL/min/mg | 130 nM | 88 nM | 51 nM | 92 nM | > 9000 nM | – | – | – | – | –
13 | COc1ccc(Nc2ncc(CN3CCS(=O)(=O)CC3)cc2-c2nc(C)nc(N)n2)cn1 | – | > 10000 nM | 21 µL/min/mg | 13 nM | 30 nM | 13 nM | 73 nM | – | – | – | – | – | –
14 | Cc1nc(-c2cccnc2Nc2cccc3n[nH]cc23)c2c[nH]nc2n1 | > 1000 nM | > 10000 nM | 56 µL/min/mg | 5000 nM | 450 nM | 2300 nM | 1700 nM | – | – | – | – | – | –
15 | COc1ccc(Nc2ncc(CN3CCCN(S(C)(=O)=O)CC3)cc2-c2nc(C)nc(N)n2)cn1 | – | > 10000 nM | 242 µL/min/mg | 21 nM | 46 nM | 61 nM | 33 nM | – | – | – | – | – | –
16 | COc1ccc(Nc2ccccc2-c2nc(C)nc(N)n2)cn1 | > 1000 nM | – | 190 µL/min/mg | 310 nM | 380 nM | 580 nM | 640 nM | – | – | – | – | – | –

Row | SMILES | IC50 [1] | IC50 [2] | microsomal CLint (in vitro) | Ki [3] | Ki [4] | Ki [5] | Ki [6] | IC50 [7] | bioavailability [8] | MRT (in vivo [9]) | clearance (in vivo [10]) | AUC (in vivo [11]) | Vd (in vivo [12])
17 | Cc1cc(-c2cccnc2Nc2cccc(O)c2)nc(N)n1 | > 1000 nM | > 10000 nM | 118 µL/min/mg | 6000 nM | 2600 nM | > 10000 nM | 4900 nM | – | – | – | – | – | –
18 | Cc1ncnc(-n2c(Nc3cccc(O)c3)nc3ccccc32)n1 | > 1000 nM | 7 nM | 218 µL/min/mg | 3 nM | 4 nM | 4 nM | 2 nM | – | – | – | – | – | –
19 | Cc1nc(N)cc(-c2cccnc2Nc2cccc(O)c2)n1 | > 1000 nM | 360 nM | 62 µL/min/mg | 56 nM | 51 nM | 35 nM | 28 nM | – | – | – | – | – | –
20 | Cc1nc(-c2cccnc2Nc2cccc3[nH]ncc23)c2nc[nH]c2n1 | > 1000 nM | – | 44 µL/min/mg | 350 nM | 12 nM | – | – | – | – | – | – | – | –
21 | COc1ccc(Nc2ncncc2-c2nc(C)nc(N)n2)cn1 | > 1000 nM | – | 110 µL/min/mg | 62 nM | 59 nM | 81 nM | 120 nM | – | – | – | – | – | –
22 | COc1ccc(Nc2nccnc2-c2nc(C)nc(N)n2)cn1 | > 1000 nM | – | 41 µL/min/mg | 300 nM | 90 nM | 740 nM | 520 nM | – | – | – | – | – | –
23 | COc1ccc(Nc2cccnc2-c2nc(C)nc(N)n2)cn1 | – | > 10000 nM | 96 µL/min/mg | 910 nM | 480 nM | 610 nM | 1300 nM | – | – | – | – | – | –
24 | COc1ccc(Nc2ncc(Cc3ccc(S(C)(=O)=O)cc3)cc2-c2nc(C)nc(N)n2)cn1 | – | – | 59 µL/min/mg | 1 nM | 7 nM | – | – | – | 2% | 1.2 h | 30 mL/min/kg | 0.04 µM·h | 2.1 L/kg
25 | Nc1cc(-c2cccnc2Nc2cccc3[nH]ncc23)nc(C(F)(F)F)n1 | > 1000 nM | > 10000 nM | 76 µL/min/mg | > 10000 nM | 3600 nM | 1300 nM | 3200 nM | – | – | – | – | – | –
26 | COc1ccc(Nc2ncc(CN3CCC(S(C)(=O)=O)CC3)cc2-c2nc(C)nc(N)n2)cn1 | – | – | 20 µL/min/mg | 3 nM | 9 nM | 5 nM | – | – | 18% | 1.3 h | 41.7 mL/min/kg | 0.33 µM·h | 2.9 L/kg
27 | COc1ccc(Nc2nccnc2-c2cc(N)nc(C)n2)cn1 | > 1000 nM | – | 72 µL/min/mg | 130 nM | 58 nM | 130 nM | 120 nM | – | – | – | – | – | –
28 | COc1ccc(Nc2ncc(CN3CCN(C(=O)N(C)C)CC3)cc2-c2nc(C)nc(N)n2)cn1 | – | 1400 nM | 17 µL/min/mg | 3 nM | 8 nM | 16 nM | 84 nM | – | – | – | – | – | –
29 | COc1ccc(Nc2ncc(N3CCN(C)CC3)cc2-c2nc(C)nc(N)n2)cn1 | – | 1400 nM | 23 µL/min/mg | 16 nM | 21 nM | 7 nM | 39 nM | – | – | – | – | – | –
30 | Cc1nc(N)cc(-c2cccnc2Nc2cccc3[nH]ncc23)n1 | > 1000 nM | > 10000 nM | 75 µL/min/mg | 370 nM | 91 nM | 110 nM | 150 nM | – | – | – | – | – | –
31 | COc1ccc(N(C)c2ncccc2-c2nc(C)nc(N)n2)cn1 | > 1000 nM | > 10000 nM | 41 µL/min/mg | > 10000 nM | > 10000 nM | > 10000 nM | > 10000 nM | – | – | – | – | – | –
32 | COc1ccc(Nc2ncc(CC3CCN(S(C)(=O)=O)CC3)cc2-c2nc(C)nc(N)n2)cn1 | – | – | 111 µL/min/mg | 4 nM | 8 nM | 15 nM | – | – | 3% | 1 h | 46.7 mL/min/kg | 0.04 µM·h | 2.7 L/kg
